For assay [1], the target named is T1, menin/MLL (terbium chelate-labeled menin, FITC-MBM1 peptide) (Homo sapiens, UniProt O00255, T541A).
T1 construct: Menin (a.a 1-610-6xhis tag)
T1 sequence (O00255 with tags, fused parts or gaps T541A): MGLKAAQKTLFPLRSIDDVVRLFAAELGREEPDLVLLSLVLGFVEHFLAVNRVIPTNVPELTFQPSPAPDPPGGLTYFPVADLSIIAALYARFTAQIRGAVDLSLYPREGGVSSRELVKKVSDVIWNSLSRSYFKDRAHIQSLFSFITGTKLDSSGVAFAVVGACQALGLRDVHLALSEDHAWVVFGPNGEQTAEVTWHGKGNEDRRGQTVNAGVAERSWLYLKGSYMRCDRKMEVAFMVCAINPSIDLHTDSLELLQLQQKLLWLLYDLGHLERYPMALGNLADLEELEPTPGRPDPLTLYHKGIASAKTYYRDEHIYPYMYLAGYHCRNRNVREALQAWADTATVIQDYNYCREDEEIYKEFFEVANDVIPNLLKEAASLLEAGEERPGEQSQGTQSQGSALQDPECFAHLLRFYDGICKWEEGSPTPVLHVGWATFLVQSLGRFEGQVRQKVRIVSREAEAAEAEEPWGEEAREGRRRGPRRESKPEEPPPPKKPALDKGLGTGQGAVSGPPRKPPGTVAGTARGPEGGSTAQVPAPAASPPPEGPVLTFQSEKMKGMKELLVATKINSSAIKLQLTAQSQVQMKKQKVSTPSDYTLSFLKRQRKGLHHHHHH
As to the kind of experiment: Menin/MLL homogenous time-resolved fluorescence (HTRF) assay. It counts as binding. Particulars: 30 min incubation. Here is the method: 1) Menin/MLL Homogenous Time-Resolved Fluorescence (HTRF) Assay
To an untreated, white 384-well microtiter plate was added 40 nL 200× test compound in DMSO and 4 μL 2× terbium chelate-labeled menin (vide infra for preparation) in assay buffer (40 mM Tris.HCl, pH 7.5, 50 mM NaCl, 1 mM DTT (dithiothreitol) and 0.05% Pluronic F-127). After incubation of test compound and terbium chelate-labeled menin for 30 min at ambient temperature, 4 μL 2× FITC-MBM1 peptide (FITC-β-alanine-SARWRFPARPGT-NH2 (SEQ ID NO: 3)) (“FITC” means fluorescein isothiocyanate) in assay buffer was added, the microtiter plate centrifuged at 1000 rpm for 1 min and the assay mixtures incubated for 15 min at ambient temperature. The relative amount of menin FITC-MBM1 complex present in an assay mixture is determined by measuring the homogenous time-resolved fluorescence (HTRF) of the terbium/FITC donor/acceptor fluorophore pair using an EnVision microplate reader (ex. 337 nm/terbium em. 490 nm/FITC em. 520 nm) at ambient temperature. The degree of fluorescence resonance energy transfer (the HTRF value) is expressed as the ratio of the fluorescence emission intensities of the FITC and terbium fluorophores (F^em 520 nm/F^em 490 nm). The final concentrations of reagents in the binding assay are 200 pM terbium chelate-labeled menin, 75 nM FITC-MBM1 peptide and 0.5% DMSO in assay buffer. Dose-response titrations of test compounds are conducted using an 11 point, four-fold serial dilution scheme, starting typically at 10 μM.
Compound potencies were determined by first calculating % inhibition at each compound concentration according to equation 1:
% inhibition=((HC−LC)−(HTRF^compound−LC))/(HC−LC))*100 (Eqn 1)
Where LC and HC are the HTRF values of the assay in the presence or absence of a saturating concentration of a compound that competes with FITC-MBM1 for binding to menin, and HTRF^compound is the measured HTRF value in the presence of the test compound. HC and LC HTRF values represent an average of at least 10 replicates per plate.
% inhibition=Bottom+(Top−Bottom)/(1+10^((logIC50−log[cmpd])*h)) (Eqn 2)
Where Bottom and Top are the lower and upper asymptotes of the dose-response curve, respectively, IC50 is the concentration of compound that yields 50% inhibition of signal and h is the Hill coefficient. IC50 values below 0.1 nM in the HTRF assay were reported as 0.1 nM in the Table below (detection limit).
Preparation of Terbium cryptate labeling of Menin: Menin (a.a 1-610-6xhis tag (“6xhis tag” disclosed as SEQ ID NO: 2), 2.3 mg/mL in 20 mM Hepes (2-[4-(2-Hydroxyethyl)-1-piperazinyl]ethane sulfonic acid), 80 mM NaCl, 5 mM DTT (Dithiothreitol), pH 7.5) was labeled with terbium cryptate as follows. 200 μg of Menin was buffer exchanged into 1× Hepes buffer. 6.67 μM Menin was incubated with 8-fold molar excess NHS (N-hydroxysuccinimide)-terbium cryptate for 40 minutes at room temperature. Half of the labeled protein was purified away from free label by running the reaction over a NAP5 column with elution buffer (0.1 M Hepes, pH 7+0.1% BSA (bovine serum albumin)). The other half was eluted with 0.1 M phosphate buffered saline (PBS), pH7. 400 μl of eluent was collected for each, aliquoted and frozen at −80° C. The final concentration of terbium-labeled Menin protein was 115 μg/mL in Hepes buffer and 85 μg/mL in PBS buffer, respectively.

Assay [2] relates to MOLM14 cells. The assay can be described thus: Proliferation assay, spheroid-like growth, MOLM14 (MLL-AF9 rearranged). It is filed as cell-based, human. Particulars: Homo sapiens, MOLM-14, 192 h, 8 days, confluence as measure of spheroid size, read-out: spheroid assay_OneTime MOLM14 IC50. Here is the method: The anti-proliferative effect of menin/MLL protein/protein interaction inhibitor test compounds was assessed in human leukemia cell lines. The cell line MOLM14 harbors a MLL translocation and expresses the MLL fusion proteins MLL-AF9, respectively, as well as the wildtype protein from the second allele. […] KO-52 was used as a control cell line containing two MLL (KMT2A) wildtype alleles in order to exclude compounds that display general cytotoxic effects.
MOLM14 cells were cultured in RPMI-1640 (Sigma Aldrich) supplemented with 10% heat-inactivated fetal bovine serum (HyClone), 2 mM L-glutamine (Sigma Aldrich) and 50 μg/ml gentamycin (Gibco). KO-52 cell lines were propagated in alpha-MEM (Sigma Aldrich) supplemented with 20% heat-inactivated fetal bovine serum (HyClone), 2 mM L-glutamine (Sigma Aldrich) and 50 μg/ml gentamycin (Gibco).
In order to assess the anti-proliferative effects, 200 MOLM14 cells, or 300 KO-52 cells were seeded in 200 μl media per well in 96-well round bottom, ultra-low attachment plates (Costar, catalogue number 7007). Cell seeding numbers were chosen based on growth curves to ensure linear growth throughout the experiment. Test compounds were added at different concentrations and the DMSO content was normalized to 0.3%. Cells were incubated for 8 days at 37° C. and 5% CO2. Spheroid like growth was measured in real-time by live-cell imaging (IncuCyteZOOM, Essenbio, 4× objective) acquiring images at day 8. Confluence (%) as a measure of spheroid size was determined using an integrated analysis tool.
In order to determine the effect of the test compounds over time, the confluence in each well as a measure of spheroid size, was calculated. Confluence of the highest dose of a reference compound was used as baseline for the LC (Low control) and the confluence of DMSO treated cells was used as 0% cytotoxicity (High Control, HC).
Absolute IC50 values were calculated as percent change in confluence as follows:
LC=Low Control: cells treated with e.g. 1 μM of the cytotoxic agent staurosporin, or e.g. cells treated with a high concentration of an alternative reference compound
GraphPad Prism (version 7.00) was used to calculate the IC50. Dose-response equation was used for the plot of % Effect vs Log 10 compound concentration with a variable slope and fixing the maximum to 100% and the minimum to 0%.

Each structure is given as a SMILES string. pIC50: −log10 of the molar value.

Consider `CC(C)C([C@H]1C[C@@H](N2CC[C@@](C)(O)C2)C1)N1CC2(CCN(c3ncnnc3Oc3ccc(F)cc3-c3cnccc3C3CC3)C2)C1` (mixture of isomers) [Compound 137], for which the pIC50 is 9.70 in assay [1] and 8.15 in assay [2].

Turning to `CC(C)[C@H]([C@H]1C[C@@H](N2CCC(C(=O)N(C)C)C2)C1)N1CC2(CCN(c3ncnnc3Oc3ccc(F)cc3-c3cncnc3C3CC3)C2)C1` (mixture of isomers) [Compound 210], the results for the pIC50 in assay [1] and in assay [2] were 10.00 and 8.30, respectively.

As for `COC1(C)CCN([C@H]2C[C@@H]([C@H](C(C)C)N3CC4(CCN(c5ncnnc5Oc5ccc(F)cc5-c5nnccc5C5CC5)C4)C3)C2)C1` (mixture of isomers) [Compound 275], the pIC50 in assay [1] is 10.00; in assay [2] it was 8.15.

With `Cc1ncc(-c2cc(F)ccc2Oc2nncnc2N2CCC3(C2)CN([C@@H](C(C)C)[C@H]2C[C@@H](N4CC5COCC5C4)C2)C3)c(C2CC2)n1` (mixture of isomers) [Compound 379], the pIC50 is 9.96 in assay [1] and 8.72 in assay [2].

Regarding `Cc1nnc(C2CC2)n1-c1cc(F)ccc1Oc1nncnc1N1CCC2(C1)CN([C@H](C(C)C)C1CC(N(C)C)C1)C2` (mixture of isomers) [Compound 502, N,N-dimethyl-3-[(1R)-1-[7-[6-[2-(3-cyclopropyl-5-methyl-1,2,4-triazol-4-yl)-4-fluoro-phenoxy]-1,2,4-triazin-5-yl]-2,7-diazaspiro[3.4]octan-2-yl]-2-methyl-propyl]cyclobutanamine], the pIC50 in assay [1] was 9.92; in assay [2] it was 7.49.

As for `CC(=O)N1CCN([C@H]2C[C@H]([C@H](C(C)C)N3CC4(CCN(c5ncnnc5Oc5ccc(F)cc5-c5cnncc5C5CC5)C4)C3)C2)CC1` (single isomer, unassigned) [Compound 105], the pIC50 in assay [1] was 9.00.

Consider `CC(C)[C@H]([C@H]1C[C@@H](N2CC3(CCC(=O)N3C)C2)C1)N1CC2(CCN(c3ncnnc3Oc3ccc(F)cc3-c3cncnc3C3CC3)C2)C1` (single isomer, unassigned) [Compound 316], for which the pIC50 in assay [1] is 8.31.

In the case of `CC(C)[C@@H](C1CN(CC2COC2)C1)N1CC2(CCN(c3ncnnc3Oc3ccc(F)cc3-c3cncnc3C3CC3)C2)C1` (single isomer, unassigned) [Compound 353], the pIC50 in assay [1] was 9.30.

In the case of `C[C@@H]([C@H]1C[C@@H](NC(=O)C2CC2)C1)N1CC2(CCN(c3ncnnc3Oc3ccc(F)cc3-c3cncnc3C3CC3)C2)C1` (single isomer, unassigned) [Compound 444], in assay [1], the pIC50 was 9.80.

In assay [1], `C[C@@H]([C@H]1C[C@@H](NC(=O)C2(F)CC2)C1)N1CC2(CCN(c3ncnnc3Oc3ccc(F)cc3-c3cncnc3C3CC3)C2)C1` (single isomer, unassigned) [Compound 456] had a pIC50 of 9.28.

As for `CNC(=O)c1nccc(N[C@H]2C[C@@H]([C@@H](C(C)C)N3CC4(CCN(c5ncnnc5Oc5ccc(F)cc5-c5cncnc5C5CC5)C4)C3)C2)n1` (single isomer, unassigned) [Compound 457], the pIC50 in assay [1] is 9.54.

In assay [1], `CNC(=O)c1nc(N[C@H]2C[C@@H](C(C(C)C)N3CC4(CCN(c5ncnnc5Oc5ccc(F)cc5-c5cncnc5C5CC5)C4)C3)C2)oc1C` (single isomer, unassigned) [Compound 459] showed a pIC50 of 10.22.

In assay [1], `COC(=O)c1nccc(N[C@H]2C[C@@H](C(C(C)C)N3CC4(CCN(c5ncnnc5Oc5ccc(F)cc5-c5cncnc5C5CC5)C4)C3)C2)n1` (single isomer, unassigned) [Compound 489] gave a pIC50 of 9.66.

Consider `Cc1noc(C2CC2)c1-c1cc(F)ccc1Oc1nncnc1N1CCC2(C1)CN([C@H](C(C)C)[C@H]1C[C@@H](N(C)C)C1)C2` (single isomer, unassigned) [Compound 503], for which the negative logarithm of the IC50 (pIC50) in assay [1] was 9.74.

On to `CC(=O)N[C@H]1C[C@@H](C(C(C)C)N2CC3(CCN(c4ncnnc4Oc4ccc(F)cc4-c4ccnnc4C4CC4)C3)C2)C1` (some centres unmarked) [Compound 182], for which the pIC50 in assay [1] was 9.22.

Molecule `CC(C)C(C1CCN(CC2COC2)CC1)N1CC2(CCN(c3ncnnc3Oc3ccc(F)cc3-c3nccnc3C3CC3)C2)C1` (centres unmarked) [Compound 202] had a pIC50 in assay [1] of 9.15.

In the case of `Cc1noc(C2CC2)c1-c1cc(F)ccc1Oc1nncnc1N1CCC2(C1)CN([C@H](C(C)C)[C@H]1C[C@@H](NC(=O)OC(C)(C)C)C1)C2` [Compound 504, tert-butyl N-[3-[(1R)-1-[7-[6-[2-(5-cyclopropyl-3-methyl-isoxazol-4-yl)-4-fluoro-phenoxy]-1,2,4-triazin-5-yl]-2,7-diazaspiro[3.4]octan-2-yl]-2-methyl-propyl]cyclobutyl]carbamate], in assay [1], the pIC50 was 9.24.

For the molecule `Cc1noc(C2CC2)c1-c1cc(F)ccc1Oc1nncnc1N1CCC2(C1)CN([C@H](C(C)C)C1CC(NC(=O)OC(C)(C)C)C1)C2` (stereo partly drawn) [Compound 505, tert-butyl N-[3-[(1R)-1-[7-[6-[2-(5-cyclopropyl-3-methyl-isoxazol-4-yl)-4-fluoro-phenoxy]-1,2,4-triazin-5-yl]-2,7-diazaspiro[3.4]octan-2-yl]-2-methyl-propyl]cyclobutyl]carbamate], in assay [1], the pIC50 is 9.27.
